Drawing on PubChem BioAssay (NCI), this text covers TGI and GI50 for 10 compounds.

Some test systems named below: MALME-3M melanoma; DU-145 prostate; MOLT-4 leukemia; ACHN renal; SNB-75 CNS; SF-539 CNS; UO-31 renal; TK-10 renal.
Holding throughout (assay): NCI anticancer screen, dose series, 48 h

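Growth conditions: 96-well plates. Treatment: test compound, 48 hours, 5 concentrations. Analysis: linear interpolation between bracketing concentrations; unreached endpoints set to highest concentration. The concentration for 50% growth inhibition is given as GI50. TGI denotes the concentration required for complete inhibition of growth.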 Bounds are passed on as bounds.

As for `Oc1ccc(Br)cc1C=Nc1cccc(C(F)(F)F)c1`, the TGI with MALME-3M melanoma was 75.5 µM; with DU-145 prostate, > 100 µM; in the assay on MOLT-4 leukemia, 83.8 µM; in the assay with ACHN renal it was > 100 µM; in the assay on SNB-75 CNS it was > 100 µM; with SF-539 CNS, 99.1 µM. For the same compound, the TGI in the assay on UO-31 renal and in the assay with TK-10 renal was > 100 µM in each case.

Regarding `CN=C(N)c1ccc(N=C(N)c2ccc(-c3ccc(C(N)=Nc4ccc(C(N)=NC)cc4)cc3)cc2)cc1`, the GI50 with MALME-3M melanoma was 25.5 µM; with DU-145 prostate, 41.2 µM; in the assay on MOLT-4 leukemia, > 100 µM; with ACHN renal, > 100 µM; in the assay on SNB-75 CNS, > 100 µM; in the assay on SF-539 CNS it was > 100 µM. The results for the GI50 in the assay with UO-31 renal and in the assay on TK-10 renal were > 100 µM and 35.9 µM, respectively. Also, the TGI in the assay on MALME-3M melanoma was 78.7 µM; in the assay on DU-145 prostate it was > 100 µM; in the assay with MOLT-4 leukemia, > 100 µM; with ACHN renal, > 100 µM; with SNB-75 CNS it was > 100 µM; in the assay on SF-539 CNS, > 100 µM. Moreover, the TGI with UO-31 renal is > 100 µM; in the assay on TK-10 renal it was 97.1 µM.

As to `C[C@@]1([C@H](OC(=O)c2ccccc2)C(N)=O)CO1`, the GI50 in the assay on MALME-3M melanoma is 28.3 µM; in the assay with DU-145 prostate, 27.2 µM; in the assay on MOLT-4 leukemia it was 35.7 µM; in the assay with ACHN renal, 10.5 µM; in the assay with SNB-75 CNS, 22.8 µM; with SF-539 CNS it was 21.6 µM. For the same compound, the GI50 in the assay on UO-31 renal was 20.2 µM; in the assay on TK-10 renal, 19.8 µM. Further, the TGI in the assay with MALME-3M melanoma was 58 µM; with DU-145 prostate, > 100 µM; in the assay on MOLT-4 leukemia it was > 100 µM; in the assay with ACHN renal it was 34.3 µM; in the assay with SNB-75 CNS, 50.6 µM; in the assay with SF-539 CNS, 55.7 µM. For the same compound, the TGI was found to be 51.8 µM with UO-31 renal and 73.7 µM in the assay with TK-10 renal.

In the case of `Cc1ccc(CNc2ccc(Br)cc2)cc1`, the TGI in the assay with MALME-3M melanoma is 64 µM; with DU-145 prostate it was > 100 µM; in the assay on MOLT-4 leukemia it was > 100 µM; with ACHN renal, 41.7 µM; with SNB-75 CNS, > 100 µM; with SF-539 CNS it was > 100 µM. Moreover, the TGI was 49.2 µM with UO-31 renal and > 100 µM in the assay with TK-10 renal.

For `C/C(=N\O)c1ccc2ccc3ccccc3c2c1`, the TGI was 50.5 µM with MALME-3M melanoma; > 100 µM in the assay with DU-145 prostate; 52.9 µM in the assay with MOLT-4 leukemia; > 100 µM in the assay with ACHN renal; > 100 µM with SNB-75 CNS; 38.8 µM in the assay with SF-539 CNS. Moreover, the TGI with UO-31 renal and in the assay with TK-10 renal was > 100 µM each time.

As for `COc1cc(/C=C/C(=O)c2cccc(-n3cc(-c4cc(OC)c(OC)c(OC)c4)[nH]c3=O)c2)cc(OC)c1OC`, the GI50 is 1.8 µM in the assay on MALME-3M melanoma; 2.98 µM in the assay on DU-145 prostate; 1.75 µM with MOLT-4 leukemia; 1.74 µM in the assay with ACHN renal; 5.13 µM in the assay with SNB-75 CNS; 3.12 µM in the assay on SF-539 CNS. The GI50 with UO-31 renal was 0.962 µM; in the assay on TK-10 renal, 3 µM. The TGI came to 3.7 µM in the assay on MALME-3M melanoma; 13.6 µM in the assay with DU-145 prostate; 8.08 µM with MOLT-4 leukemia; 3.3 µM in the assay on ACHN renal; 21 µM in the assay on SNB-75 CNS; 18 µM in the assay on SF-539 CNS. The results for the TGI in the assay on UO-31 renal and in the assay with TK-10 renal were 3.13 µM and 6.68 µM, respectively.

With `C#Cc1cccc(Nc2ncnc3cc(NC(=O)CCl)ccc23)c1`, the GI50 is 2.8 µM in the assay on MALME-3M melanoma; 2.8 µM in the assay with DU-145 prostate; 0.739 µM with MOLT-4 leukemia; 2.14 µM with ACHN renal; 1.53 µM with SNB-75 CNS; 3.48 µM with SF-539 CNS. Besides, the figures for the GI50 in the assay on UO-31 renal and with TK-10 renal were 2.55 µM and 1.86 µM, respectively. For the same compound, the TGI in the assay with MALME-3M melanoma was found to be 6.65 µM; in the assay with DU-145 prostate it was 5.91 µM; in the assay on MOLT-4 leukemia, 3.45 µM; in the assay on ACHN renal it was 5.66 µM; in the assay with SNB-75 CNS, 5.01 µM; with SF-539 CNS, 6.82 µM. For the same compound, the figures for the TGI with UO-31 renal and in the assay on TK-10 renal were 5.6 µM and 5.98 µM, respectively.

With `O=C1NC(=NCCc2ccc(F)cc2)S/C1=C\c1ccc2ncccc2c1`, the GI50 in the assay with MALME-3M melanoma, in the assay on DU-145 prostate, in the assay on MOLT-4 leukemia, in the assay with ACHN renal, in the assay with SNB-75 CNS and in the assay on SF-539 CNS was > 25 µM in each case. Also, the GI50 in the assay on UO-31 renal and in the assay with TK-10 renal was > 25 µM each time. For the same compound, the TGI in the assay with MALME-3M melanoma, in the assay with DU-145 prostate, in the assay on MOLT-4 leukemia, in the assay with ACHN renal, in the assay on SNB-75 CNS and with SF-539 CNS was > 25 µM throughout. Also, the TGI in the assay on UO-31 renal and with TK-10 renal was > 25 µM each time.

With `COc1cnc2c(c1)C(=O)c1c-2n(CCCNC2=NCCS2)c(=O)c2cc(F)ccc12`, the GI50 in the assay with MALME-3M melanoma was 0.598 µM; in the assay with DU-145 prostate, 0.144 µM; in the assay on MOLT-4 leukemia it was 0.0421 µM; with ACHN renal it was 0.0496 µM; in the assay on SNB-75 CNS, 0.358 µM; with SF-539 CNS it was 0.305 µM. The GI50 in the assay with UO-31 renal was 0.108 µM; with TK-10 renal, 1.12 µM. For the same compound, the TGI is 13.2 µM with MALME-3M melanoma; 1.63 µM in the assay on DU-145 prostate; 0.514 µM with MOLT-4 leukemia; 1.91 µM in the assay with ACHN renal; 18.9 µM in the assay with SNB-75 CNS; 1.09 µM in the assay on SF-539 CNS. Besides, the results for the TGI in the assay on UO-31 renal and with TK-10 renal were 1.12 µM and 2.52 µM, respectively.

For `O=C(Nc1ccc(Oc2ccc3nc(NC(=O)c4ccco4)[nH]c3c2)cc1)Nc1cc(C(F)(F)F)ccc1F`, the GI50 in the assay on MALME-3M melanoma is 0.699 µM; in the assay on DU-145 prostate, 2.92 µM; with MOLT-4 leukemia, 2.21 µM; with ACHN renal it was 1.28 µM; with SNB-75 CNS it was 2.39 µM; in the assay on SF-539 CNS, 0.943 µM. Further, the GI50 was 0.874 µM in the assay with UO-31 renal and 2.57 µM in the assay with TK-10 renal. Further, the TGI is 5.31 µM with MALME-3M melanoma; 10.6 µM in the assay with DU-145 prostate; 15.7 µM in the assay with MOLT-4 leukemia; 6.08 µM in the assay with ACHN renal; 10.2 µM in the assay with SNB-75 CNS; 5.69 µM in the assay on SF-539 CNS. Also, the TGI turned out to be 5.27 µM in the assay with UO-31 renal and 12.8 µM in the assay on TK-10 renal.
